Source: patent publication US12209087B2, “AKT1 modulators” (Alterome Therapeutics, Inc., priority 2022, dated 2025)

Molecular target: T1, full length AKT E17K (Homo sapiens, UniProt P31749, E17K)
T1 construct: host or cells: HEK-293 (ATCC CRL-1573)
Assay: NanoBRET Target Engagement (TE) Assay
Format: cell-based
Conditions: competitive displacement of tracer in cells, read-out: AKT1 E17K IC50
Procedure, shortened: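 Compound and tracer incubated 2 h before luminescence at donor 450 nm and acceptor 600 nm, with extracellular signal inhibited. EC50 by sigmoidal variable-slope regression.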

T1 sequence (P31749 whole entry E17K): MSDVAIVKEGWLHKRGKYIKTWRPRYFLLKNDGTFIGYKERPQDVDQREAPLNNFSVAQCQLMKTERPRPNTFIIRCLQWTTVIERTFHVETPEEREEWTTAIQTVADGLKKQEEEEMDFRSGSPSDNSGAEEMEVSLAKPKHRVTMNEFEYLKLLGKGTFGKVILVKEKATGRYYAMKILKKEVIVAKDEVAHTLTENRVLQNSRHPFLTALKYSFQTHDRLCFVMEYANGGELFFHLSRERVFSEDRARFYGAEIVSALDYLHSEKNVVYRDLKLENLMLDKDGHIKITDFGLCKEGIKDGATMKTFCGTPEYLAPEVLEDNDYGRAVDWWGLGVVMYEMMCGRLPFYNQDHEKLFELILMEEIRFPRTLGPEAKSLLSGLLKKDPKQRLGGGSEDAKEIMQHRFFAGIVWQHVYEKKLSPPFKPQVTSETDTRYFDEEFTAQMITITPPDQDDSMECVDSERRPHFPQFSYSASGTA

| Structure (SMILES) | IC50 |
| --- | --- |
| N#Cc1nccc(NC2CCN(Cc3ccc(-n4c(-c5cccnc5N)nc5c(O)ncnc54)cc3)CC2)n1 [Example 494, 4-((1-(4-(8-(2-aminopyridin-3-yl)-6-hydroxy-9H-purin-9-yl)benzyl)piperidin-4-yl)amino)pyrimidine-2-carbonitrile] | 600 to 10000 nM |
| N#Cc1nccc(NC2CCN(Cc3ccc(-n4c(-c5cccnc5N)nc5ccc(-c6ccccn6)nc54)cc3)CC2)n1 [Example 495, 4-((1-(4-(2-(2-Aminopyridin-3-yl)-5-(pyridin-2-yl)-3H-imidazo[4,5-b]pyridin-3-yl)benzyl)piperidin-4-yl)amino)pyrimidine-2-carbonitrile] | < 15 nM |
| N#Cc1nccc(NC2CCN(Cc3ccc(-n4c(-c5cccnc5N)nc5ccc(O)nc54)cc3)CC2)n1 [Example 496, 4-((1-(4-(2-(2-Aminopyridin-3-yl)-5-hydroxy-3H-imidazo[4,5-b]pyridin-3-yl)benzyl)piperidin-4-yl)amino)pyrimidine-2-carbonitrile] | 15 to 60 nM |
| N#Cc1nccc(NC2CCN(Cc3ccc(-n4c(-c5cccnc5N)nc5ccc(N)nc54)cc3)CC2)n1 [Example 497, 4-((1-(4-(5-Amino-2-(2-aminopyridin-3-yl)-3H-imidazo[4,5-b]pyridin-3-yl)benzyl)piperidin-4-yl)amino)pyrimidine-2-carbonitrile] | 15 to 60 nM |
| N#Cc1nccc(NC2CCN(Cc3ccc(-n4c(-c5cccnc5N)nc5ccc(-c6ccc(F)cc6Cl)nc54)cc3)CC2)n1 [Example 498, 4-((1-(4-(2-(2-Aminopyridin-3-yl)-5-(2-chloro-4-fluorophenyl)-3H-imidazo[4,5-b]pyridin-3-yl)benzyl)piperidin-4-yl)amino)pyrimidine-2-carbonitrile] | 15 to 60 nM |
| Cc1cc2nc(-c3cccnc3N)n(-c3ccc(CN4CCC(Nc5ccnc(C#N)n5)CC4)cc3)c2nc1-c1ccc(F)cc1 [Example 499, 4-((1-(4-(2-(2-aminopyridin-3-yl)-5-(4-fluorophenyl)-6-methyl-3H-imidazo[4,5-b]pyridin-3-yl)benzyl)piperidin-4-yl)amino)pyrimidine-2-carbonitrile] | < 15 nM |
| N#Cc1ccc2nc(-c3cccnc3N)n(-c3ccc(CN4CCC(Nc5ccnc(C#N)n5)CC4)cc3)c2c1 [Example 500, 2-(2-Aminopyridin-3-yl)-1-(4-((4-((2-cyanopyrimidin-4-yl)amino)piperidin-1-yl)methyl)phenyl)-1H-benzo[d]imidazole-6-carbonitrile] | < 15 nM |
| N#Cc1ccc2c(c1)nc(-c1cccnc1N)n2-c1ccc(CN2CCC(Nc3ccnc(C#N)n3)CC2)cc1 [Example 501, 2-(2-Aminopyridin-3-yl)-1-(4-((4-((2-cyanopyrimidin-4-yl)amino)piperidin-1-yl)methyl)phenyl)-1H-benzo[d]imidazole-5-carbonitrile] | 15 to 60 nM |
| [2H]C([2H])([2H])N(c1ccnc(C#N)n1)C1CCN(C([2H])([2H])c2ccc(-n3c(-c4cccnc4N)nc4cccnc43)cc2)CC1 [Example 502, 4-((1-((4-(2-(2-Aminopyridin-3-yl)-3H-imidazo[4,5-b]pyridin-3-yl)phenyl)methyl-d2)piperidin-4-yl)(methyl-d3)amino)pyrimidine-2-carbonitrile] | 15 to 60 nM |
| [2H]C1(Nc2ccnc(C#N)n2)CCN(Cc2ccc(-n3c(-c4cccnc4N)nc4cccnc43)cc2)CC1 [Example 503, 4-((1-(4-(2-(2-Aminopyridin-3-yl)-3H-imidazo[4,5-b]pyridin-3-yl)benzyl)piperidin-4-yl-4-d)amino)pyrimidine-2-carbonitrile] | 15 to 60 nM |
| [2H]C([2H])(c1ccc(-n2c(-c3cccnc3N)nc3cc(C)c(C)nc32)cc1)N1CCC(Nc2ccnc(C#N)n2)CC1 [Example 504, 4-((1-((4-(2-(2-Aminopyridin-3-yl)-5,6-dimethyl-3H-imidazo[4,5-b]pyridin-3-yl)phenyl)methyl-d2)piperidin-4-yl)amino)pyrimidine-2-carbonitrile] | < 15 nM |
| N#Cc1nccc(NC2CCN(Cc3ccc(-n4c(-c5cccnc5N)nc5cncnc54)cc3)CC2)n1 [Example 505, 4-((1-(4-(8-(2-Aminopyridin-3-yl)-9H-purin-9-yl)benzyl)piperidin-4-yl)amino)pyrimidine-2-carbonitrile] | 60 to 600 nM |
| N#Cc1nccc(NC2CCN(Cc3ccc(-n4c(-c5cccnc5N)nc5ccc(CO)nc54)cc3)CC2)n1 [Example 508, 4-((1-(4-(2-(2-Aminopyridin-3-yl)-5-(hydroxymethyl)-3H-imidazo[4,5-b]pyridin-3-yl)benzyl)piperidin-4-yl)amino)pyrimidine-2-carbonitrile] | 15 to 60 nM |
| N#Cc1nccc(NC2CCN(Cc3ccc(-n4c(-c5cccnc5N)nc5ccc(CF)nc54)cc3)CC2)n1 [Example 509, 4-((1-(4-(2-(2-Aminopyridin-3-yl)-5-(fluoromethyl)-3H-imidazo[4,5-b]pyridin-3-yl)benzyl)piperidin-4-yl)amino)pyrimidine-2-carbonitrile] | < 15 nM |
| N#Cc1nccc(NC2CCN(Cc3ccc(-n4c(-c5cccnc5N)nc5ccc(N6CCCC6)nc54)cc3)CC2)n1 [Example 510, 4-((1-(4-(2-(2-Aminopyridin-3-yl)-5-(pyrrolidin-1-yl)-3H-imidazo[4,5-b]pyridin-3-yl)benzyl)piperidin-4-yl)amino)pyrimidine-2-carbonitrile] | < 15 nM |
| COc1cc(-c2ccc3nc(-c4cccnc4N)n(-c4ccc(CN5CCC(Nc6ccnc(C#N)n6)CC5)cc4)c3n2)ccn1 [Example 511, 4-((1-(4-(2-(2-Aminopyridin-3-yl)-5-(2-methoxypyridin-4-yl)-3H-imidazo[4,5-b]pyridin-3-yl)benzyl)piperidin-4-yl)amino)pyrimidine-2-carbonitrile] | < 15 nM |
| COc1cncc(-c2ccc3nc(-c4cccnc4N)n(-c4ccc(CN5CCC(Nc6ccnc(C#N)n6)CC5)cc4)c3n2)c1 [Example 512, 4-((1-(4-(2-(2-Aminopyridin-3-yl)-5-(5-methoxypyridin-3-yl)-3H-imidazo[4,5-b]pyridin-3-yl)benzyl)piperidin-4-yl)amino)pyrimidine-2-carbonitrile] | < 15 nM |
| C#Cc1ccc2nc(-c3cccnc3N)n(-c3ccc(CN4CCC(Nc5ccnc(C#N)n5)CC4)cc3)c2n1 [Example 513, 4-((1-(4-(2-(2-Aminopyridin-3-yl)-5-ethynyl-3H-imidazo[4,5-b]pyridin-3-yl)benzyl)piperidin-4-yl)amino)pyrimidine-2-carbonitrile] | < 15 nM |
| CC(=O)N(C)c1cccc(-c2ccc3nc(-c4cccnc4N)n(-c4ccc(CN5CCC(Nc6ccnc(C#N)n6)CC5)cc4)c3n2)c1 [Example 514, N-(3-(2-(2-Aminopyridin-3-yl)-3-(4-((4-((2-cyanopyrimidin-4-yl)amino)piperidin-1-yl)methyl)phenyl)-3H-imidazo[4,5-b]pyridin-5-yl)phenyl)-N-methylacetamide] | < 15 nM |
| COc1cnccc1-c1ccc2nc(-c3cccnc3N)n(-c3ccc(CN4CCC(Nc5ccnc(C#N)n5)CC4)cc3)c2n1 [Example 515, 4-((1-(4-(2-(2-Aminopyridin-3-yl)-5-(3-methoxypyridin-4-yl)-3H-imidazo[4,5-b]pyridin-3-yl)benzyl)piperidin-4-yl)amino)pyrimidine-2-carbonitrile] | < 15 nM |
